In publication doi:10.1101/2024.08.19.608619, “Discovery of potent SARS-CoV-2 nsp3 macrodomain inhibitors uncovers lack of translation to cellular antiviral response” (bioRxiv, 2024) one finds remaining activity data, which are given here for six compounds.

Like-named read-outs stand apart in the source and are kept apart here.

Test in all cases: biochemical
Common to all, as to parameters: In vitro kinase panel profiling, per cent remaining kinase activity at 10 uM

One test has as its target T1, eEF-2K(h) (Homo sapiens, UniProt O00418).
T1 construct: gene EEF2K
T1 sequence (O00418 1-725): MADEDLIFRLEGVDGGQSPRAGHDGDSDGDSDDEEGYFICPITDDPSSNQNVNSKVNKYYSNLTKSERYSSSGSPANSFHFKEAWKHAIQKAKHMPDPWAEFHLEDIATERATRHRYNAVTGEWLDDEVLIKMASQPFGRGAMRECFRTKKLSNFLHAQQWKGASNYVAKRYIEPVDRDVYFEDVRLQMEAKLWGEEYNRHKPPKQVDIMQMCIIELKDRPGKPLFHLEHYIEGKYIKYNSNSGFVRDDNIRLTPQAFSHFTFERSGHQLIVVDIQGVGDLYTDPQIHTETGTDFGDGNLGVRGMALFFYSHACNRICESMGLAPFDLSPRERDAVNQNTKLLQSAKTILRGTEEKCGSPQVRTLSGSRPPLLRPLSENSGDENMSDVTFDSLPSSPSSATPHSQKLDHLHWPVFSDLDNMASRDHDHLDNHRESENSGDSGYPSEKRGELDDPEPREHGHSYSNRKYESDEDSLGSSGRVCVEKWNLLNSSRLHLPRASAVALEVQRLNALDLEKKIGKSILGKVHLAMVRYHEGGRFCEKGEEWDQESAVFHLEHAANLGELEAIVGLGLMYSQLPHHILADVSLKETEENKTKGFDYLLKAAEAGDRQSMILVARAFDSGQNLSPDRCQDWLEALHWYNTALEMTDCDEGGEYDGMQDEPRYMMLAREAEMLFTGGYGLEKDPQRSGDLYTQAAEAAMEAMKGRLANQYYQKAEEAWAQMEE
Conditions: atp_concentration=15, read-out: % of control remaining. From the text: (§1) We derisk potential for off-target activity by profiling the compound in a CEREP panel, a standard secondary pharmacology assessment, as well as a kinase panel to derisk a potential hinge-binding motif in our leads, and a PARP panel to derisk activity against human […]. Reassuringly, the compounds are selective, with the only off-targets being moderate human CHRM2 and KOR receptors activity associated with ASAP-0011198.

For a further test, the target named is Lyn(h) (Homo sapiens, UniProt P07948). Conditions: atp_concentration=70, read-out: % of control remaining.
Lyn(h), sequence (P07948 whole entry): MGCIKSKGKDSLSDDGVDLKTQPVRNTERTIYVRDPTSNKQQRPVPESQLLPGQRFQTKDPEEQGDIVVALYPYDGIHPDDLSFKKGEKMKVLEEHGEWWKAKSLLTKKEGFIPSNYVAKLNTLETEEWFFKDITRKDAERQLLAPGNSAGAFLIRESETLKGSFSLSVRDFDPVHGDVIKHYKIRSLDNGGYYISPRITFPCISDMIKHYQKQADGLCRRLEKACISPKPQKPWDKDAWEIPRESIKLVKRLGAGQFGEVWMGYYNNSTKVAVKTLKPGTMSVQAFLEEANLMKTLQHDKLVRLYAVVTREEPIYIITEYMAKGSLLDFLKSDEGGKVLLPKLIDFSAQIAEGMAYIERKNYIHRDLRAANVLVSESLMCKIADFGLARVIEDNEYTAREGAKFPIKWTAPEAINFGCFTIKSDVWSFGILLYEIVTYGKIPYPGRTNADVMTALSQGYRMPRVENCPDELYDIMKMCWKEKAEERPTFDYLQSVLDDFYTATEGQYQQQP
Excerpt: as §1

A further test deals with T2, SAPK2a(h) (Homo sapiens, UniProt Q16539).
T2 construct: gene MAPK14
T2 sequence (Q16539 whole entry): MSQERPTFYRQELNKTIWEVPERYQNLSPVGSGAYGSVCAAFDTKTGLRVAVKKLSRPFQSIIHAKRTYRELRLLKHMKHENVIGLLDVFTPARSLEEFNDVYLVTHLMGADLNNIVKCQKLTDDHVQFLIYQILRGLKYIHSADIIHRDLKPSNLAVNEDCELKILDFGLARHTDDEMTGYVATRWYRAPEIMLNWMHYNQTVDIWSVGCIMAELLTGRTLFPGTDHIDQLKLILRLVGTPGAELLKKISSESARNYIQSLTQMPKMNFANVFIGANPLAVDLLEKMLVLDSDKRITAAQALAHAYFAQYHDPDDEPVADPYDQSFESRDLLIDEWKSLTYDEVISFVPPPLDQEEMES
Conditions: atp_concentration=90, read-out: % of control remaining.
Excerpt: as §1

The target in test [1] is T3, PI3 Kinase (p110β/p85α)(h) (Homo sapiens, UniProt P42338).
T3 construct: gene PIK3CB
Conditions: atp_concentration=200, read-out: % of control remaining.
Excerpt: as §1

The target of the next test is T4, p70S6K(h) (Homo sapiens, UniProt P23443).
T4 construct: gene RPS6KB1
T4 sequence (P23443 whole entry): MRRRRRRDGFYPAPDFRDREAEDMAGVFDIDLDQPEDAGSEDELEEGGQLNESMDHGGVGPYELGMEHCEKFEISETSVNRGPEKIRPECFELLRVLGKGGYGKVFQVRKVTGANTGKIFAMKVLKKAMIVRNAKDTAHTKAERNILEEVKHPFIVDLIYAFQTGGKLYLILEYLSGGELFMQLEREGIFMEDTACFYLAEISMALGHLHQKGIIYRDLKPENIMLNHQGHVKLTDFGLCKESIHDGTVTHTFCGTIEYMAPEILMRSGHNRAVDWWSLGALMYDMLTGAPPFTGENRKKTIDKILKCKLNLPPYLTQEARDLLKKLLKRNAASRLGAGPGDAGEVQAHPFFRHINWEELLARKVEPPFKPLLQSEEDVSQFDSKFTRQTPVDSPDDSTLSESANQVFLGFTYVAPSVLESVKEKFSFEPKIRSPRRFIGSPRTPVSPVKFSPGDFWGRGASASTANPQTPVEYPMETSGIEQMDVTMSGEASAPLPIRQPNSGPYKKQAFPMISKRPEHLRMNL
Conditions: atp_concentration=15, read-out: % of control remaining.
Excerpt: as §1

The target of another test is T5, MST1(h) (Homo sapiens, UniProt Q13043).
T5 construct: gene STK4
T5 sequence (Q13043 1-487): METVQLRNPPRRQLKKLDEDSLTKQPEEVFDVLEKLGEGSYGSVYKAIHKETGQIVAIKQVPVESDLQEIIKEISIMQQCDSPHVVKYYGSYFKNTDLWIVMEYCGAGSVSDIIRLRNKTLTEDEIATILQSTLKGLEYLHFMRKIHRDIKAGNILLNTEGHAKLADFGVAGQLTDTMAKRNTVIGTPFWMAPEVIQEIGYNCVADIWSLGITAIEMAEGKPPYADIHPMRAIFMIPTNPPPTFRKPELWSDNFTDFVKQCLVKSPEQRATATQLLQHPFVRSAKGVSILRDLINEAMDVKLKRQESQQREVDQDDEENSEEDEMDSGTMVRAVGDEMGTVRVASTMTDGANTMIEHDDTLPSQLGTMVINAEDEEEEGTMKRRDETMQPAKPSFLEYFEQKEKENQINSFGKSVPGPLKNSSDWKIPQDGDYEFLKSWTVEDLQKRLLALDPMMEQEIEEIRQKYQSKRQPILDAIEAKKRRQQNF
Conditions: atp_concentration=90, read-out: % of control remaining.
Excerpt: as §1

The target in another test is T6, IRAK4(h) (Homo sapiens, UniProt Q9NWZ3).
T6 sequence (Q9NWZ3 1-460): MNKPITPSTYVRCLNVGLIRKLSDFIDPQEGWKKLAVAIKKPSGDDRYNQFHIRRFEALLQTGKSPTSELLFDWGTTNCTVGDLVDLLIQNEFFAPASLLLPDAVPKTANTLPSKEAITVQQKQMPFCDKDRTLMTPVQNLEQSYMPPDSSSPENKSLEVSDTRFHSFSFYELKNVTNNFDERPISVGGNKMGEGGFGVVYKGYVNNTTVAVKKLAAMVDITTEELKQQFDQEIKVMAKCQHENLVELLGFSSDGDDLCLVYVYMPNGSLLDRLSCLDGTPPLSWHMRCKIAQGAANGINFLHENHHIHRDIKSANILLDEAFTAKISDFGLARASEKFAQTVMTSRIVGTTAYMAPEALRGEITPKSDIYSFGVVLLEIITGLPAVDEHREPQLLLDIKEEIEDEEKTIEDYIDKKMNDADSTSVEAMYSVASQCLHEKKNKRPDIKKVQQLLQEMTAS
Conditions: atp_concentration=200, read-out: % of control remaining.
Excerpt: as §1

The target in test [2] is T7, PI3 Kinase (p110δ/p85α)(h) (Homo sapiens, UniProt O00329).
T7 construct: gene PIK3CD
T7 sequence (O00329 whole entry): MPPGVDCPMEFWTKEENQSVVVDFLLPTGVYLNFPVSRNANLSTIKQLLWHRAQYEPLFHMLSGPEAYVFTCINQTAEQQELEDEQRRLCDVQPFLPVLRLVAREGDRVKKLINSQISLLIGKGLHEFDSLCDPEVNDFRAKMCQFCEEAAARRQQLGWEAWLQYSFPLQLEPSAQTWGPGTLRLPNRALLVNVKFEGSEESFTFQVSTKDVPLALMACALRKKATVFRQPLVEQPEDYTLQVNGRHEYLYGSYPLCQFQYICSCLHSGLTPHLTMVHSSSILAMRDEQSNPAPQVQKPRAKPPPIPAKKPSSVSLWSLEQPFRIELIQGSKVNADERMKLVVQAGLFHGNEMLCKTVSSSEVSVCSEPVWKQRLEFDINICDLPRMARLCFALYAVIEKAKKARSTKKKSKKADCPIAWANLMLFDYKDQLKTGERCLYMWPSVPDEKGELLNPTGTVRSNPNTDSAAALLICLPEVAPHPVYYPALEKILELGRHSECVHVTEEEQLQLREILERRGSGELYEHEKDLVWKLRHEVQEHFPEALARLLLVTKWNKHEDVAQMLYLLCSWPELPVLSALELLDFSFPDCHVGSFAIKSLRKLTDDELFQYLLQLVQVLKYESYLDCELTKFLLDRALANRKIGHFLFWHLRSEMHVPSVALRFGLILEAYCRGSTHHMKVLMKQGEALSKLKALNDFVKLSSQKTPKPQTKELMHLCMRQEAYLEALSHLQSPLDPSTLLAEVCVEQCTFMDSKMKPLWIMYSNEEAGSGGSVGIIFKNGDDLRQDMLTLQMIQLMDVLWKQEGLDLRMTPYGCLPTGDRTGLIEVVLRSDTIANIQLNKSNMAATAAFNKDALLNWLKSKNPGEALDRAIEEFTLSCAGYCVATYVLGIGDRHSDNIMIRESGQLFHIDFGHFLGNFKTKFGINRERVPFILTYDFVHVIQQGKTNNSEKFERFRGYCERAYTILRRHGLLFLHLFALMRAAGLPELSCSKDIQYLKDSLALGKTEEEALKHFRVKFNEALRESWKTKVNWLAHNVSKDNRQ
T7 sequence (P27986 whole entry partner): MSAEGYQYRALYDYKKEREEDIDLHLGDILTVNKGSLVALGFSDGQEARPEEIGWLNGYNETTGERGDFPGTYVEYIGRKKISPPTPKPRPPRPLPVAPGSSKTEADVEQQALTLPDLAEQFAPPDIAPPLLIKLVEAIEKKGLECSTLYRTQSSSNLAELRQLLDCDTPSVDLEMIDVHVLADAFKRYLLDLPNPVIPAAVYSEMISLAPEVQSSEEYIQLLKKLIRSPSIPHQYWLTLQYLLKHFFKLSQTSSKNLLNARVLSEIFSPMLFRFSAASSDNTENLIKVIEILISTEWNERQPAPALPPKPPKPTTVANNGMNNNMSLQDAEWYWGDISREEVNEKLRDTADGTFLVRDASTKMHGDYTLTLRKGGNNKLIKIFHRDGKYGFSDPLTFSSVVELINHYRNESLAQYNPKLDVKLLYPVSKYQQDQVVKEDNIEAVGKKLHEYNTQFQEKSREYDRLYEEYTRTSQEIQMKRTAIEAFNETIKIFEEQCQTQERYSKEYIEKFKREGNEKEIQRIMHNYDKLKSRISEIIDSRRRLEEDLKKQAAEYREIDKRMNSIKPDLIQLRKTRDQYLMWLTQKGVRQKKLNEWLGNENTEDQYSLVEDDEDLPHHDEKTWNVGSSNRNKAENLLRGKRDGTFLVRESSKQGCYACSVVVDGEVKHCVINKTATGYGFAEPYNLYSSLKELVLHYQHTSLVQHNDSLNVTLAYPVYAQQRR
Conditions: atp_concentration=200, read-out: % of control remaining.
Excerpt: as §1

The target of the next test is T8, LOK(h) (Homo sapiens, UniProt O94804).
T8 construct: gene STK10
T8 sequence (O94804 whole entry): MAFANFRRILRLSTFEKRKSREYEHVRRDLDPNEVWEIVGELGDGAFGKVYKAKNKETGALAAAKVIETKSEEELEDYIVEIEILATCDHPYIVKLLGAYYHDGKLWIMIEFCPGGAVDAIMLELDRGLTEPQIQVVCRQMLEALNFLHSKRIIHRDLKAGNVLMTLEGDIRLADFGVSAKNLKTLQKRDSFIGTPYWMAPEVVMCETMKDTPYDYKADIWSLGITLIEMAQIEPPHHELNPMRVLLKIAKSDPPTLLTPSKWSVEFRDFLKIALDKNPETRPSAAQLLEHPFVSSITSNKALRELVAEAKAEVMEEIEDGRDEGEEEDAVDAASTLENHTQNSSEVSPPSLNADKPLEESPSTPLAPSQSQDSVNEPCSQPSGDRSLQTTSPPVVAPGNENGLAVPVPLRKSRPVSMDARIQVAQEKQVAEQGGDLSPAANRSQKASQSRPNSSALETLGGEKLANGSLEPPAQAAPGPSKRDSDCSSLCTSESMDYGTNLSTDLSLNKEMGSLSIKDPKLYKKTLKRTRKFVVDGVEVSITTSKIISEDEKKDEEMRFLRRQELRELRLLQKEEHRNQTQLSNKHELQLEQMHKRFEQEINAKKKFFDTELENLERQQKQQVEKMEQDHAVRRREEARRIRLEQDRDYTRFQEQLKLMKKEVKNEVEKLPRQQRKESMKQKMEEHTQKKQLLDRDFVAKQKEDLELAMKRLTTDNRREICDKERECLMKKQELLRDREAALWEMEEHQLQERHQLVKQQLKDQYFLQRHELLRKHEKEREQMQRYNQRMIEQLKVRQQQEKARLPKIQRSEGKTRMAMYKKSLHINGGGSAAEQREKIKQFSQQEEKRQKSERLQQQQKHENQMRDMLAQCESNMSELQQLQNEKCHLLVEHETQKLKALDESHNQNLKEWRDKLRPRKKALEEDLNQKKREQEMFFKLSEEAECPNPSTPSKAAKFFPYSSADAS
Conditions: atp_concentration=120, read-out: % of control remaining.
Excerpt: as §1

`CC(C)C(Nc1ncnc2[nH]ccc12)c1ccc2c(c1)S(=O)(=O)CCC2` (stereo not drawn) [ASAP-0008327]: the remaining activity at 10 µM at eEF-2K(h) (batch_name=ASAP-0008327-001) amounted to 92%; at Lyn(h) (batch_name=ASAP-0008327-001), 112%; on SAPK2a(h) (batch_name=ASAP-0008327-001), 108%; in test [1] (batch_name=ASAP-0008327-001) it was 101%; on p70S6K(h) (batch_name=ASAP-0008327-001), 98%; on MST1(h) (batch_name=ASAP-0008327-001), 88%. Besides, the remaining activity at 10 µM at IRAK4(h) (batch_name=ASAP-0008327-001) was 88%; in test [2] (batch_name=ASAP-0008327-001), 101%; on LOK(h) (batch_name=ASAP-0008327-001) it was 104%.
As to `COc1ccc([C@@H](Cc2nnn[nH]2)NC(=O)c2ncnc3[nH]ccc23)cc1` [ASAP-0008340], the remaining activity at 10 µM stood at 96% on eEF-2K(h) (batch_name=ASAP-0008340-001); 111% at Lyn(h) (batch_name=ASAP-0008340-001); 100% on SAPK2a(h) (batch_name=ASAP-0008340-001); 102% in [1] (batch_name=ASAP-0008340-001); 81% at p70S6K(h) (batch_name=ASAP-0008340-001); 98% on MST1(h) (batch_name=ASAP-0008340-001). For the same compound, the remaining activity at 10 µM on IRAK4(h) (batch_name=ASAP-0008340-001) stood at 91%; in test [2] (batch_name=ASAP-0008340-001) it was 99%; at LOK(h) (batch_name=ASAP-0008340-001), 96%.
On to `CC(C)[C@@H](Nc1ncnc2[nH]c(-c3cnn(C)c3C#N)cc12)c1ccc2c(n1)OCCO2` [ASAP-0008418], for which the remaining activity at 10 µM on eEF-2K(h) (batch_name=ASAP-0008418-001) was 111%; on Lyn(h) (batch_name=ASAP-0008418-001), 61%; at SAPK2a(h) (batch_name=ASAP-0008418-001), 103%; in test [1] (batch_name=ASAP-0008418-001), 92%; on p70S6K(h) (batch_name=ASAP-0008418-001) it was 82%; on MST1(h) (batch_name=ASAP-0008418-001), 103%. Moreover, the results for the remaining activity at 10 µM (on IRAK4(h) (batch_name=ASAP-0008418-001); in test [2] (batch_name=ASAP-0008418-001); at LOK(h) (batch_name=ASAP-0008418-001)) were 100%, 55% and 47%, respectively.
`CC(C)[C@H](Nc1ncnc2[nH]ccc12)c1ccc2c(c1)S(=O)(=O)CCC2` [ASAP-0008674]: the remaining activity at 10 µM on eEF-2K(h) (batch_name=ASAP-0008674-002) amounted to 93%; on Lyn(h) (batch_name=ASAP-0008674-002), 104%; at SAPK2a(h) (batch_name=ASAP-0008674-002), 107%; in [1] (batch_name=ASAP-0008674-002) it was 100%; at p70S6K(h) (batch_name=ASAP-0008674-002), 103%; at MST1(h) (batch_name=ASAP-0008674-002), 126%. Further, the remaining activity at 10 µM at IRAK4(h) (batch_name=ASAP-0008674-002) is 112%; in test [2] (batch_name=ASAP-0008674-002), 99%; at LOK(h) (batch_name=ASAP-0008674-002) it was 102%.
For the compound `CC(C)[C@H](Nc1ncnc2[nH]c(-c3cnn(C)c3C#N)cc12)c1ccc2c(n1)OCCO2` [ASAP-0010715], the remaining activity at 10 µM at eEF-2K(h) (batch_name=ASAP-0010715-002) stood at 108%; on Lyn(h) (batch_name=ASAP-0010715-002) it was 79%; at SAPK2a(h) (batch_name=ASAP-0010715-002), 99%; in [1] (batch_name=ASAP-0010715-002), 86%; at p70S6K(h) (batch_name=ASAP-0010715-002) it was 125%; at MST1(h) (batch_name=ASAP-0010715-002), 120%. For the same compound, the remaining activity at 10 µM on IRAK4(h) (batch_name=ASAP-0010715-002) was determined as 106%; in test [2] (batch_name=ASAP-0010715-002) it was 66%; on LOK(h) (batch_name=ASAP-0010715-002), 45%.
Turning to `CC(C)[C@@H](Nc1ncnc2[nH]c(-c3cnn(C)c3C#N)cc12)c1ccc2c(n1)OCCO2` [ASAP-0010716], the remaining activity at 10 µM at eEF-2K(h) (batch_name=ASAP-0010716-002) came to 106%; on Lyn(h) (batch_name=ASAP-0010716-002) it was 96%; on SAPK2a(h) (batch_name=ASAP-0010716-002), 101%; in test [1] (batch_name=ASAP-0010716-002), 84%; on p70S6K(h) (batch_name=ASAP-0010716-002) it was 106%; at MST1(h) (batch_name=ASAP-0010716-002) it was 121%. Also, the remaining activity at 10 µM at IRAK4(h) (batch_name=ASAP-0010716-002) came out at 99%; in test [2] (batch_name=ASAP-0010716-002), 61%; on LOK(h) (batch_name=ASAP-0010716-002), 106%.
